Assay [1] concerns apolipoprotein B (B100). In words: Secretion of apolipoprotein B (B100) from HepG2 cells into the test medium, ELISA. The assay is classed as cell-based, human. Particulars: 150 μM, 24 hr culture, FIG. 1. How it is done:
(§1) A test medium containing 150 μM of linolic acid menthol ester (1% BSA-DMEM) was provided. In this test medium, human liver-derived HepG2 cells were cultured for 24 hr, and the cells and the medium were collected.
(§2) Evaluation 2: Test on Secretion (Inhibition/Enhancement) of Apolipoproteins A and B
(§3) The amount of apolipoprotein A (A1) and apolipoprotein B (B100) secreted from the human liver-derived HepG2 cells into the test medium was measured by the ELISA method.
For orientation: An ELISA detects its analyte on a solid surface through an enzyme-linked reagent.

Assay [2] has as its system apolipoprotein A (A1). In words: Secretion of apolipoprotein A (A1) from HepG2 cells into the test medium, ELISA. In kind it is cell-based, human. Particulars: 150 μM, 24 hr culture, FIG. 2. How it is done: as §1, §2, §3

In the case of `CCCCC/C=C\C/C=C\CCCCCCCC(=O)OC1CC(C)CCC1C(C)C` (centres unmarked) [linolic acid menthol ester], the “amount of apolipoprotein B (B100) secreted” value in assay [1] is on record as “inhibit the secretion of apolipoprotein B (B100)”. For the same compound, the “amount of apolipoprotein A (A1) secreted” value in assay [2] is recorded as “significantly enhance the secretion of apolipoprotein A (A1)”.
